Reference: patent US8652536B2, “Skin clarifying complex, use of said complex, cosmestic or pharmaceutical composition comprising said complex and method for application thereof” (Natura Cosmeticos S.A., priority 2009, dated 2014)

Experiments:
Assay type in all cases: cell-based
line B16 melanocytes = experiment: cells; conditions: for amount of melanin, % control: vs Control DMSO
Experimental: The assay methodology for the test lasted for five days in which, initially, line B16 melanocytes were plated on 12 well-conditioned containers, at a rate of 75,000 cells/plate.
On the three following days, 10mg (11 μl to linoleic acid) of component in the mixture were diluted in 100 μl of DMSO (dimethyl-sulfoxide) and, then, 9.9 ml of DMEM (culture medium) serum free were added so as to finally obtain 1 mg/ml of stock solution.
Sequentially, these solutions were incubated at 37° C. to assist solubilization of the samples. 10% bovine fetal serum (BFS) were added to the final dilution.
The actives are: gallic acid and linoleic acid.
On day five of the test the cells were divided into two steps of characterization: • Assessment of melanin in which the cells were first “washed” with PBS and then the cellular layer was dissolved into 500 μl of 3N NaOH and the suspension homogenized by pipetting. Two 200 μl portions of suspension were plated for optical reading at 400 nm.

[1] = tested on: culture medium corresponding to the epidermis; experiment: Melanin extracted from epidermis culture after 6 days of treatment; conditions: 6 days treatment, kojic acid 250 μM, A 25 μg/ml, B 75 μg/ml, A + B 25 + 75 μg/ml; for melanin extracted from epidermis, Mean (%): % of control; for Reduction (%) of melanin extracted from epidermis: vs control
Experimental: In another example samples containing an extract of Brazilian […] extract (A), linoleic acid (B) and a mixture of the active ingredients linoleic acid and gallic acid (A+B), respectively, were compared to a control and to kojic acid as far as the reduction of the amount of melanin is concerned. Each sample was applied to a culture medium corresponding to the epidermis and the concentrations of melanin were measured after 6 days of treatment.

3T3 cells [2] = experiment: Cytotoxicity assay, Neutral Red, 24 hours incubation
3T3 cells [3] = experiment: Phototoxicity test, Neutral Red capture with and without UVA radiation; conditions: with and without non-cytotoxic dose of UVA
Experimental: Cytotoxicity assay allows determining the cytotoxic concentration of an active, when 3T3 cells are incubated therewith for 24 hours. Toxicity is determined as a function of cell viability, monitored by incubation of 3T3 cells with Neutral Red, and essential dye incorporated by living cells 24 hours 24 hours after contacting the active. Such assessment uses methodologies established by the National Institute of Health (NIH), USA, acknowledged internationally (Guidance NIH, 2001). The phototoxicity test is based on a comparison of the toxicity of an active in the presence and absence of a non-cytotoxic dose of UVA radiation. Phototoxicity is measured by Neutral Red capture by those cells surviving incubation with the active, according to a protocol already established and standardized by COLIPA and OECD (ZEBET/ECVAM/COLIPA, 1998; OECD, 2004). Phototoxicity/photoirritation is defined as the toxic response caused after a first exposure of the skin to certain products/actives and the subsequent exposure to sun light or induced by an irradiation of the skin after systemic administration of an active/product.

Row | SMILES | melanin synthesis, % control (line B16 melanocytes; comparison with pharmaceutical and market actives at the same concentration, printed 0.01 mg/ml, α-MSH, FIG. 4) [% control] | melanin extracted from epidermis, Mean (%) [1] [%] | melanin extracted from epidermis, Mean [1] [µg/mL] | Reduction (%) of melanin extracted from epidermis [1] [%] | Reduction (%) of melanin extracted from epidermis ([1]; listed as kojic acid) | Cytotoxicity (3T3 cells [2]) | Phototoxicity (3T3 cells [3]) | Reduction (%) of melanin extracted from epidermis ([1]; listed as B) [%] | Reduction (%) of melanin extracted from epidermis ([1]; listed as sample B) [%] | inhibition at 25 µg/mL (line B16 melanocytes; Melanocyte, active alone at 0.025 mg/ml (its concentration in the mixture), read-out: inhibition of melanin by active alone) [%] | inhibition at 50 µg/mL (line B16 melanocytes; Melanocyte, active alone at 0.05 mg/ml (its concentration in the mixture), read-out: inhibition of melanin by active alone) [%] | inhibition at 75 µg/mL (line B16 melanocytes; Melanocyte, active alone at 0.075 mg/ml (its concentration in the mixture), read-out: inhibition of melanin by active alone) [%] | amount of melanin, % control (line B16 melanocytes; active alone at 0.025 mg/ml, α-MSH) [% control] | amount of melanin, % control (line B16 melanocytes; active alone at 0.05 mg/ml, α-MSH) [% control] | amount of melanin, % control (line B16 melanocytes; active alone at 0.075 mg/ml, α-MSH) [% control]
1 | OC[C@H]1O[C@@H](Oc2ccc(O)cc2)[C@H](O)[C@@H](O)[C@@H]1O [Arbutin, reference compound] | 82.5 |  |  |  |  |  |  |  |  |  |  |  |  |  | 
2 | O=c1cc(CO)occ1O [Kojic acid, reference compound] |  | 78.98 | 20.95 | 21.02 | about 21.02% |  |  |  |  |  |  |  |  |  | 
3 | CCCCC/C=C\C/C=C\CCCCCCCC(=O)O [linoleic acid] |  | 80.67 | 21.4 |  |  | Not cytotoxic | Not phototoxic | 19.33 | 19.3 | 8.1 | 15.9 | 19 | 91.9 | 84.1 | 81.0
